Experimental data published in doi:10.1101/2022.03.24.485529v3, “Distinct bile salt hydrolase substrate preferences dictate C. difficile pathogenesis” (biorxiv, 2022).

Legend:
LingBSH = molecular target: T1, LingBSH (Limosilactobacillus ingluviei, UniProt A0A0R1U3N2); experiment: deconjugation of AA-CA pool by LC-IMS-MS; assay type: biochemical; conditions: pool of CA conjugated to 22 amino acids
T1 construct: gene FC43_GL000624; heterologously expressed and purified; homotetramer; species inferred from the abbreviation Ling
T1 sequence (A0A0R1U3N2 2-327): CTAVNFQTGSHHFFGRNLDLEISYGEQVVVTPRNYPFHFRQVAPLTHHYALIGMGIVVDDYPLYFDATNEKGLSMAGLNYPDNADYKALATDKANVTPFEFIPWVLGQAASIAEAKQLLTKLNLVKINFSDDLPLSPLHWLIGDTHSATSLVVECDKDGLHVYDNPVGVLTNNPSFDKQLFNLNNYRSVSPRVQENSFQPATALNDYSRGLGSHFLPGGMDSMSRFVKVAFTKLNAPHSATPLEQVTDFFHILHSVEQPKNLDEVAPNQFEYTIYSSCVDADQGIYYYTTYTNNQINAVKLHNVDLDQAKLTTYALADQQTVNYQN

LgasBSHa = molecular target: T2, LgasBSHa (Lactobacillus gasseri, UniProt A0A805Z5R7); experiment: X-ray crystallography; assay type: binding; conditions: active site
T2 construct: gene bsh; heterologously expressed and purified; homotetramer, neighbouring monomer donates loop to active site
T2 sequence (A0A805Z5R7 2-316): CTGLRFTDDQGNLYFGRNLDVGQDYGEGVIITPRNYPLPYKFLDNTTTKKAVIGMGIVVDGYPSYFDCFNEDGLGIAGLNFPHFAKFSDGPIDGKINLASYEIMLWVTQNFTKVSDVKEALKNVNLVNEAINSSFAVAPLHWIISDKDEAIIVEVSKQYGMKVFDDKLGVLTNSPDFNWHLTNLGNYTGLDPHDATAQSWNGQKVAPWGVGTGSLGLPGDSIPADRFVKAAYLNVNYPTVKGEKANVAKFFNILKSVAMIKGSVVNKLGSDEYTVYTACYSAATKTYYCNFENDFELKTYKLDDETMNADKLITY

In the case of `C[C@H](NC(=O)CC[C@@H](C)[C@H]1CC[C@H]2[C@@H]3[C@H](O)C[C@@H]4C[C@H](O)CC[C@]4(C)[C@H]3C[C@H](O)[C@]12C)C(=O)O` [Ala-CA], the “% deconjugation after 5 minutes” value (LingBSH; also purified Ala-CA (enzyme not named in that sentence)) is reported as “Ala and Ser-conjugated BAs are efficiently processed”.

With `C[C@H](CCC(=O)O)[C@H]1CC[C@H]2[C@@H]3[C@H](O)C[C@@H]4C[C@H](O)CC[C@]4(C)[C@H]3CC[C@]12C` [CDCA] the X-ray crystallography (LgasBSHa; ternary complex with taurine) was “LgasBSHa was resolved in complexes with taurine or taurine plus CDCA”.

In the case of `C[C@H](CCC(=O)N[C@@H](CO)C(=O)O)[C@H]1CC[C@H]2[C@@H]3[C@H](O)C[C@@H]4C[C@H](O)CC[C@]4(C)[C@H]3C[C@H](O)[C@]12C` [Ser-CA], the “% deconjugation after 5 minutes” value (LingBSH; also purified Ser-CA (enzyme not named in that sentence)) is reported as “Ala and Ser-conjugated BAs are efficiently processed”.

In the case of `NCCS(=O)(=O)O` [taurine], the X-ray crystallography (LgasBSHa; complexes with taurine alone and with taurine plus CDCA) is reported as “LgasBSHa was resolved in complexes with taurine or taurine plus CDCA”.
